From doi:10.1101/215335v1 (biorxiv, 2017)

Biological target: T1, TaALMT1 (Triticum aestivum, UniProt Q76LB1)
T1 sequence (Q76LB1 1-459): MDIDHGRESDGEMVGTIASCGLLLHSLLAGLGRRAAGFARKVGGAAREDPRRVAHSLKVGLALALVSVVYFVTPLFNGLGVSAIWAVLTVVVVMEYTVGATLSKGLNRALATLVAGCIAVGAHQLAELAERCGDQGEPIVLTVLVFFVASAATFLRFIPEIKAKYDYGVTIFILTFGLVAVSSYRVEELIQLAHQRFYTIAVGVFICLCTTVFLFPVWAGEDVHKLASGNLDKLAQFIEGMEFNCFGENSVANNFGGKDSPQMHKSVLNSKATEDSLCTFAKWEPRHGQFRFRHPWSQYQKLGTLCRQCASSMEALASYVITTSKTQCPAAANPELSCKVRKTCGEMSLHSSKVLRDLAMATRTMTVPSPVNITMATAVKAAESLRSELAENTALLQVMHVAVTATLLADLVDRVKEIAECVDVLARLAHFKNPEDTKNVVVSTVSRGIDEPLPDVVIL
Assay: TEVC in Xenopus oocytes, malate-activated inward current
Type: cell-based
Conditions: read-out: % inhibition at 100 μM

inhibition at 100 µM: 100%
Compound: C=CC(N)CCC(=O)O (stereo not shown) [vigabatrin]
